This note sets out measurements from the NIST ThermoML archive (doi:10.1016/j.jct.2011.11.021).

Each structure is given as a SMILES string. Numbers after ± are expanded uncertainties.

The first series can be described thus: activity coefficient (dimensionless); of the first substance listed, at infinite dilution; xn = mol fraction of the nth substance listed. Particulars: 328.15 K; Liquid; Chromatography; x1 = 0.
As to `C#CCCCCC` [1-heptyne] + COCC[N+]1(C)CCOCC1.O=S(=O)([N-]S(=O)(=O)C(F)(F)F)C(F)(F)F, the activity coefficient was 7.24 ± 0.49.

In the case of `CCCC(C)=O` [pentan-2-one] + COCC[N+]1(C)CCOCC1.O=S(=O)([N-]S(=O)(=O)C(F)(F)F)C(F)(F)F, the activity coefficient came to 0.89 ± 0.057.

As to `CCO` [ethanol] + COCC[N+]1(C)CCOCC1.O=S(=O)([N-]S(=O)(=O)C(F)(F)F)C(F)(F)F, the activity coefficient was 1.61 ± 0.11.

Consider `CCOCC` [diethyl ether] + COCC[N+]1(C)CCOCC1.O=S(=O)([N-]S(=O)(=O)C(F)(F)F)C(F)(F)F, for which the activity coefficient amounted to 3.46 ± 0.24.

Regarding `C=Cc1ccccc1` [styrene] + COCC[N+]1(C)CCOCC1.O=S(=O)([N-]S(=O)(=O)C(F)(F)F)C(F)(F)F, the activity coefficient is 1.77 ± 0.12.

As for `CC(C)=O` [acetone] + COCC[N+]1(C)CCOCC1.O=S(=O)([N-]S(=O)(=O)C(F)(F)F)C(F)(F)F, the activity coefficient was found to be 0.442 ± 0.036.

For `CCCOCCC` [dipropyl ether] + COCC[N+]1(C)CCOCC1.O=S(=O)([N-]S(=O)(=O)C(F)(F)F)C(F)(F)F, the activity coefficient turned out to be 10.3 ± 0.7.

On to `CCc1ccccc1` [ethylbenzene] + COCC[N+]1(C)CCOCC1.O=S(=O)([N-]S(=O)(=O)C(F)(F)F)C(F)(F)F, for which the activity coefficient stood at 3.21 ± 0.22.

For the compound `COC(C)(C)C` [2-methoxy-2-methylpropane] + COCC[N+]1(C)CCOCC1.O=S(=O)([N-]S(=O)(=O)C(F)(F)F)C(F)(F)F, the activity coefficient came to 3.55 ± 0.24.

`CC(C)CO` [2-methyl-1-propanol] + COCC[N+]1(C)CCOCC1.O=S(=O)([N-]S(=O)(=O)C(F)(F)F)C(F)(F)F: the activity coefficient was determined as 2.81 ± 0.19.

Take `CC(C)CC(C)(C)C` [2,2,4-trimethylpentane] + COCC[N+]1(C)CCOCC1.O=S(=O)([N-]S(=O)(=O)C(F)(F)F)C(F)(F)F: the activity coefficient worked out at 49.5 ± 3.4.

The series is the same for the next values; noted with them: 338.15 K; Liquid; Chromatography; x1 = 0.
For `C#CCCCC` [1-hexyne] + COCC[N+]1(C)CCOCC1.O=S(=O)([N-]S(=O)(=O)C(F)(F)F)C(F)(F)F, the activity coefficient stood at 4.75 ± 0.32.

Take `CCC(=O)OC` [methyl propanoate] + COCC[N+]1(C)CCOCC1.O=S(=O)([N-]S(=O)(=O)C(F)(F)F)C(F)(F)F: the activity coefficient stood at 0.982 ± 0.062.

As for `C=C(C)c1ccccc1` [(1-methylethenyl)benzene] + COCC[N+]1(C)CCOCC1.O=S(=O)([N-]S(=O)(=O)C(F)(F)F)C(F)(F)F, the activity coefficient is 2.76 ± 0.19.

Regarding `CCC(C)(C)OC` [2-methoxy-2-methylbutane] + COCC[N+]1(C)CCOCC1.O=S(=O)([N-]S(=O)(=O)C(F)(F)F)C(F)(F)F, the activity coefficient was 5.43 ± 0.37.

As to `Cc1ccccc1C` [1,2-dimethylbenzene] + COCC[N+]1(C)CCOCC1.O=S(=O)([N-]S(=O)(=O)C(F)(F)F)C(F)(F)F, the activity coefficient came to 2.68 ± 0.18.

Turning to `CCC(C)O` (configuration not stated) [butan-2-ol] + COCC[N+]1(C)CCOCC1.O=S(=O)([N-]S(=O)(=O)C(F)(F)F)C(F)(F)F, the activity coefficient amounted to 2.26 ± 0.15.

For `CC(=O)O` [acetic acid] + COCC[N+]1(C)CCOCC1.O=S(=O)([N-]S(=O)(=O)C(F)(F)F)C(F)(F)F, the activity coefficient turned out to be 0.456 ± 0.036.

Take `c1ccncc1` [pyridine] + COCC[N+]1(C)CCOCC1.O=S(=O)([N-]S(=O)(=O)C(F)(F)F)C(F)(F)F: the activity coefficient was 0.648 ± 0.044.

Consider `CCCCO` [butan-1-ol] + COCC[N+]1(C)CCOCC1.O=S(=O)([N-]S(=O)(=O)C(F)(F)F)C(F)(F)F, for which the activity coefficient worked out at 2.66 ± 0.18.

In the case of `CCC(C)CC` [3-methylpentane] + COCC[N+]1(C)CCOCC1.O=S(=O)([N-]S(=O)(=O)C(F)(F)F)C(F)(F)F, the activity coefficient came out at 26.3 ± 1.8.

Take `C1CCCCCC1` [cycloheptane] + COCC[N+]1(C)CCOCC1.O=S(=O)([N-]S(=O)(=O)C(F)(F)F)C(F)(F)F: the activity coefficient was 21.5 ± 1.5.

In the case of `O` [water] + COCC[N+]1(C)CCOCC1.O=S(=O)([N-]S(=O)(=O)C(F)(F)F)C(F)(F)F, the activity coefficient was 1.94 ± 0.13.

Take `CCCCC` [pentane] + COCC[N+]1(C)CCOCC1.O=S(=O)([N-]S(=O)(=O)C(F)(F)F)C(F)(F)F: the activity coefficient was 20.6 ± 1.4.

For `CCCCCCCC` [octane] + COCC[N+]1(C)CCOCC1.O=S(=O)([N-]S(=O)(=O)C(F)(F)F)C(F)(F)F, the activity coefficient stood at 64.6 ± 4.4.

As for `C#CCCCCC` [1-heptyne] + COCC[N+]1(C)CCOCC1.O=S(=O)([N-]S(=O)(=O)C(F)(F)F)C(F)(F)F, the activity coefficient was found to be 7.09 ± 0.48.

As for `CCCC(C)=O` [pentan-2-one] + COCC[N+]1(C)CCOCC1.O=S(=O)([N-]S(=O)(=O)C(F)(F)F)C(F)(F)F, the activity coefficient worked out at 0.9 ± 0.057.

In the case of `CCO` [ethanol] + COCC[N+]1(C)CCOCC1.O=S(=O)([N-]S(=O)(=O)C(F)(F)F)C(F)(F)F, the activity coefficient came to 1.49 ± 0.1.

Consider `CCOCC` [diethyl ether] + COCC[N+]1(C)CCOCC1.O=S(=O)([N-]S(=O)(=O)C(F)(F)F)C(F)(F)F, for which the activity coefficient stood at 3.44 ± 0.23.

Turning to `C=Cc1ccccc1` [styrene] + COCC[N+]1(C)CCOCC1.O=S(=O)([N-]S(=O)(=O)C(F)(F)F)C(F)(F)F, the activity coefficient amounted to 1.76 ± 0.12.

On to `CC(C)=O` [acetone] + COCC[N+]1(C)CCOCC1.O=S(=O)([N-]S(=O)(=O)C(F)(F)F)C(F)(F)F, for which the activity coefficient stood at 0.451 ± 0.036.

Regarding `CCCOCCC` [dipropyl ether] + COCC[N+]1(C)CCOCC1.O=S(=O)([N-]S(=O)(=O)C(F)(F)F)C(F)(F)F, the activity coefficient amounted to 9.92 ± 0.68.

Regarding `CCc1ccccc1` [ethylbenzene] + COCC[N+]1(C)CCOCC1.O=S(=O)([N-]S(=O)(=O)C(F)(F)F)C(F)(F)F, the activity coefficient amounted to 3.16 ± 0.22.

Regarding `COC(C)(C)C` [2-methoxy-2-methylpropane] + COCC[N+]1(C)CCOCC1.O=S(=O)([N-]S(=O)(=O)C(F)(F)F)C(F)(F)F, the activity coefficient was 3.57 ± 0.24.

Turning to `CC(C)CO` [2-methyl-1-propanol] + COCC[N+]1(C)CCOCC1.O=S(=O)([N-]S(=O)(=O)C(F)(F)F)C(F)(F)F, the activity coefficient stood at 2.51 ± 0.17.

Turning to `CC(C)CC(C)(C)C` [2,2,4-trimethylpentane] + COCC[N+]1(C)CCOCC1.O=S(=O)([N-]S(=O)(=O)C(F)(F)F)C(F)(F)F, the activity coefficient was 45 ± 3.1.

Staying with this series, now noted: 348.15 K; Liquid; Chromatography; x1 = 0.
Regarding `C#CCCCC` [1-hexyne] + COCC[N+]1(C)CCOCC1.O=S(=O)([N-]S(=O)(=O)C(F)(F)F)C(F)(F)F, the activity coefficient was found to be 4.7 ± 0.32.
